Results taken from publication PMC6988797, “Antiarrhythmic Properties of Ranolazine: Inhibition of Atrial Fibrillation Associated TASK-1 Potassium Channels” (Frontiers in Pharmacology, 2019).

Assays:
Assay type in all cases: cell-based
TASK-1 = molecular target: T1, TASK-1 (Homo sapiens, UniProt O14649); experiment: whole-cell patch clamp in CHO cells; two-electrode voltage clamp in Xenopus laevis oocytes; pore mutagenesis
T1 construct: gene KCNK3

TALK-2 = molecular target: T2, TALK-2 (Homo sapiens, UniProt Q96T54); experiment: two-electrode voltage clamp in Xenopus laevis oocytes, […] ranolazine
T2 construct: gene KCNK17
T2 sequence (Q96T54 1-332): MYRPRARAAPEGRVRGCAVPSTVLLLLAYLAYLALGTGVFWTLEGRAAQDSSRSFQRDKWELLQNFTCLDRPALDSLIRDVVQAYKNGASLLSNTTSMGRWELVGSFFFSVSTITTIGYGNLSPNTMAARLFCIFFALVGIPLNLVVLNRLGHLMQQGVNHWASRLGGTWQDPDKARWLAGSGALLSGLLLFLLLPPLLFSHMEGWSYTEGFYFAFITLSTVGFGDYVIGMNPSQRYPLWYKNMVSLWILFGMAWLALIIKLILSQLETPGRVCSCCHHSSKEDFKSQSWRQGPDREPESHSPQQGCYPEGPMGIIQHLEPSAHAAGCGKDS

TASK-3 = molecular target: T3, TASK-3 (Homo sapiens, UniProt Q9NPC2); experiment: as above
T3 construct: gene KCNK9
T3 sequence (Q9NPC2 whole entry): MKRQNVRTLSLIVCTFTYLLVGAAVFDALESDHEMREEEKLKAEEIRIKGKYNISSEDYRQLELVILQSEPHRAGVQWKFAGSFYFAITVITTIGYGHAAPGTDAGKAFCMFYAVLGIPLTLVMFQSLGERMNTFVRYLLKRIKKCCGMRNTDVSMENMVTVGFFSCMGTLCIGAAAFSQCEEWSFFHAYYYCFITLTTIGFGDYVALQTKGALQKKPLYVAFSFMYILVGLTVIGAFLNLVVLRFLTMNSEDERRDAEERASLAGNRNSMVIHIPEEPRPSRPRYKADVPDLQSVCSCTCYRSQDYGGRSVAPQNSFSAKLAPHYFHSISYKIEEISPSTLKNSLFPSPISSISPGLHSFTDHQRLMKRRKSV

TASK-2 = molecular target: T4, TASK-2 (Homo sapiens, UniProt O95279); experiment: as above
T4 construct: gene KCNK5
T4 sequence (O95279 1-499): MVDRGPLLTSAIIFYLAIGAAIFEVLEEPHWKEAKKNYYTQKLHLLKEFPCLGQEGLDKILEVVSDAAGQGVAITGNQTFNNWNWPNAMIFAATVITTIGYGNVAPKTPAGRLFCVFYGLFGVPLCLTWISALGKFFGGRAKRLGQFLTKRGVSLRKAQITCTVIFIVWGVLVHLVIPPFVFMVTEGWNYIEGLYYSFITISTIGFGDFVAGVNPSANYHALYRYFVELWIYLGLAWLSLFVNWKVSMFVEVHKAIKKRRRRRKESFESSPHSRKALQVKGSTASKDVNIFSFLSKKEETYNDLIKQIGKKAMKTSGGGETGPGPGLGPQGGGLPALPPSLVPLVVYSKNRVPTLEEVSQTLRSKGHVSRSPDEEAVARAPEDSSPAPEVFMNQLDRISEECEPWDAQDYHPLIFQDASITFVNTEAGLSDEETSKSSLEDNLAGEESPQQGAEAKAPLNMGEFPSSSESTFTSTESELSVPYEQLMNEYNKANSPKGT

TALK-1 = molecular target: T5, TALK-1 (Homo sapiens, UniProt Q96T55); experiment: as above
T5 construct: gene KCNK16
T5 sequence (Q96T55 1-309): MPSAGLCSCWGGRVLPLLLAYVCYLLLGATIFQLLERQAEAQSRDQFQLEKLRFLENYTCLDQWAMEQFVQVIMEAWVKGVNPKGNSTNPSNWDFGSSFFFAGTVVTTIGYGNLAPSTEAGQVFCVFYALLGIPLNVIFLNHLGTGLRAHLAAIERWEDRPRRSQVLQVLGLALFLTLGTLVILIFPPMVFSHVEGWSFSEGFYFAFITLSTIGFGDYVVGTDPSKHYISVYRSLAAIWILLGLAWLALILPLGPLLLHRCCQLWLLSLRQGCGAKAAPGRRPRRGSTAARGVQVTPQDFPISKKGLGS

T1 sequence (O14649 whole entry): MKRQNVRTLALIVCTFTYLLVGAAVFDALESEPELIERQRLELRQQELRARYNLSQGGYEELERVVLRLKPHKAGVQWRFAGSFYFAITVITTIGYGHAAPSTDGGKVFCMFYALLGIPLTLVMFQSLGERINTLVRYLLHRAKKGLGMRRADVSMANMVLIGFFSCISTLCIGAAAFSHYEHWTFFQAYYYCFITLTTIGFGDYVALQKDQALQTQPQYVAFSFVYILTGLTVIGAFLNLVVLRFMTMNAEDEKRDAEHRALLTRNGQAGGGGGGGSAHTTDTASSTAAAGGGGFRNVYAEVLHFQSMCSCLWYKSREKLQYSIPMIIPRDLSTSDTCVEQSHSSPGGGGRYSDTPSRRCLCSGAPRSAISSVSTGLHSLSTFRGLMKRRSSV

- inhibition at 300 µM (TALK-2): 34.9%
- inhibition at 300 µM (TASK-3): 28.3%
- inhibition at 300 µM (TASK-2): 30%
- inhibition at 300 µM (TALK-1): 23%
Compound: COc1ccccc1OCC(O)CN1CCN(CC(=O)Nc2c(C)cccc2C)CC1 (centres unmarked) [ranolazine]
- IC50 (TASK-1): 30.6 µM
